Source: patent US10214495B2, “Anti-malarial agents” (MMV MEDICINES FOR MALARIA VENTURE, priority 2015, dated 2019)
≈ marks a conversion by molar mass, not a printed value. Read-outs that look alike come from different tables or passages of the source.

Assays:
P. falciparum NF54 = assay: In vitro P. falciparum growth inhibition, sensitive NF54 strain; format: cell-based; settings: Plasmodium falciparum, read-out: P. fal. NF54 IC50
Protocol: (§1) The ability of aminopyrazine derivatives according to the invention to kill P. falciparum parasites and/or to inhibit its proliferation is assayed through their ability to inhibit Plasmodium falciparum growth. Compounds were screened against multidrug resistant (K1) and sensitive (NF54) strains of P. falciparum in vitro as described by Vennerstrom et al. 2004, Nature, 430, 900-904.

hPI4KB = hPI4KB (Homo sapiens, UniProt Q9UBF8); assay: PI4KB lipid kinase ADP-Glo assay; format: biochemical; settings: ATP 10 μM, PI substrate 50 μM
Protocol: The compounds of the invention were tested on their ability to inhibit the human PI4K kinase. The non-radiometric ADP-Glo™ Assay (Promega, Madison, Wis., USA) was used for measuring the activity of the PI4KB lipid kinase. All kinase assays were performed in 96-well half-area microtiter plates from Greiner Bio-One (Frickenhausen, Germany) in a 25 μl reaction volume. The reaction cocktail was pipetted in 3 steps in the following order:
10 μl of ATP solution (in assay buffer, see below)
5 μl of test sample in 10% DMSO
10 μl of enzyme/substrate mixture
PI4KB assay contained 50 mM HEPES-NaOH, pH 7.5, 1 mM EGTA, 100 mM NaCl, 0.03% CHAPS, 2 mM DTT, ATP, 10 μM, PI4KB kinase, 20 ng/25 μL, PI substrate 50 μM. and3 mM MnCl2.
The reaction cocktails were incubated at 30° C. for 40 minutes. The reaction was stopped with 25 μl ADP-Glo reagent per well. Plates were incubated for 40 minutes at room temperature, followed by addition of 50 μl kinase detection reagent per well and incubation for further 60 minutes at room temperature. Signal was measured with a microplate multilable reader (Victor2, Perkin Elmer, Boston, Mass., USA), in luminescence mode.
All assays were performed with a BeckmanCoulter Biomek 2000/SL robotic system. The median value of the counts (n=8) of each assay plate was defined as “low control”. This value reflects unspecific binding of radioactivity to the plate in the absence of a protein kinase but in the presence of the substrate. […]
As part of the data evaluation the low control value from a particular plate was subtracted from the high control value as well as from all 80 “compound values” of the corresponding plate. The residual activity (in %) for each well of a particular plate was calculated by using the following formula (i): Res. Activity (%)=100×[(cpm of compound−low control)/(high control−low control)] […]
The residual activities for each concentration and the compound IC50 values were calculated using Quattro Workflow V3.1.0 (Quattro Research GmbH, Munich, Germany; www.quattro-research.com). […]

[1] = Pharmacokinetics in rats (iv and oral); format: in vivo; settings: rat; for Apparent T1/2 / Plasma Cl / Vd: 5.0 mg/kg iv
Protocol: Compounds of the invention were tested for their pharmacokinetics in rats according to the protocol below. Two different formulations were used to dose the compound of the invention as described in Table 3 below
Compound (1) was prepared for administration immediately prior to the experiment. The dose was prepared according to the average weight of the animals and an assumed volume of 350 μL of vehicle (IV) or 1000 μL of vehicle (oral). Volumes were adjusted io for each animal's individual weight to dose the compound at 5 mg/kg for the IV group (n=3 rats) and 20 mg/kg to the oral group (n=3). Water was supplied ad libitum, but animals were starved for 12 hours prior to dosing. Food was reinstated 5 hours post-dose.
The orally-treated animals were dosed by gavage with the drug introduced as a bolus. The IV-treated animals were anaesthetized and the drug was administered by infusion over a period of 2 minutes. Doses were staggered to allow for accurately timed sampling. Blood was collected at predetermined time-points to evaluate the kinetic profile over 24-48 hours. Blood sampling schedule, measured in hours post-dose, for the two groups of rats after the administration of Compound (1) are presented in Table 4 below:
Whole blood was collected via the tail vein into heparinised microcentrifugation tubes and stored on ice. Within 60 minutes of collection, samples were transferred to a freezer and stored at −80 ° C. until analysis was carried out via LC/MS/MS.
The extraction process was carried out on ice. To extract the drug for analysis, 30 μL of whole blood from each sample as well as from a series of standards and quality controls was transferred to a 96-well plate. A volume of 90 μL of cold methanol containing a suitable internal standard (approx. 60 ng/mL was added to each well and the plate was sealed and vortexed vigorously for 60 seconds to precipitate the proteins and release the compounds into the solvent). These were then centrifuged at 10000 G for 10 minutes to pellet the proteins and cellular debris, and the supernatant was transferred to a duplicate 96-well plate. The plate was transferred to the LC/MS/MS and held at 4° C. until all samples were injected onto the column.
LC/MS/MS analysis was carried out with 5 μL of each sample, using a method which was developed for simultaneous detection of compound (1) and the internal standard using a Phenomenex Hydro-RP column at 20° C. The mobile phase utilized acetonitrile containing 0.1% formic acid (v/v) as the organic component, and 0.1% (v/v) formic acid in water as the aqueous component. The mobile phase ran as a gradient at 400 μL/min, with the organic component increasing from 5% to 95% over 4 minutes before re-equilibration. The assay was calibrated over the range 2-6250 ng/mL (0.0056 μM-17.44 μM).

[2] = Kinetic solubility by HPLC; format: physicochemical; settings: kinetic from dmso stock, room temperature
Protocol: Dilutions were prepared to a theoretical concentration of 200 μM (n=2) in phosphate buffered saline (PBS) pH 6.5 (in 2% DMSO), in 0.01 M HCl pH 2 (in 2% DMSO) and in biologically relevant gastrointestinal media, fasted state simulated intestinal fluid, FaSSIF (in 2% DMSO). Calibration curves (11-220 μM) were prepared in DMSO. All dilutions were equilibrated at room temperature and mixed for 2 hours on an orbital shaker. The concentration of the test compounds was determined by HPLC using a Kinetex C18 column (2.1 mm×50 mm, 2.6 μm) at a column temperature of 35° C. An injection volume of 5 μL was used with a mobile phase flow rate of 0.6 mL/min. The mobile phase gradient method was as follows in Table 1: […]
Mobile phase A: 0.1% formic acid in 5% acetonitrile/water (v/v) (pH 3.1)
Mobile phase B: 0.1% formic acid in acetonitrile (pH 3.1)
Compound concentration (x) in the PBS/FASSIF/HC1 samples was calculated from the peak area (y) in the UV chromatogram by extrapolation from a three point calibration curve using the relationship: y=ax+b, where a is the slope and b is the intercept. Solubility was reported in the range <5-220 μM.

P. falciparum K1 = assay: In vitro P. falciparum growth inhibition, multidrug resistant K1 strain; format: cell-based; settings: Plasmodium falciparum, read-out: P. fal K1 IC50
Protocol: as §1

[3] = FaSSIF pH 6.5, 2% DMSO, read-out: Kinetic Solubility Fassif pH6.5
[4] = phosphate buffered saline, aqueous buffer, PBS pH 6.5, 2% DMSO, read-out: Kinetic Solubility pH 6.5
[5] = 20.0 mg/kg po vs 5.0 mg/kg iv (Reference 1 column prints iv)

Chain of hPI4KB (Q9UBF8 whole entry): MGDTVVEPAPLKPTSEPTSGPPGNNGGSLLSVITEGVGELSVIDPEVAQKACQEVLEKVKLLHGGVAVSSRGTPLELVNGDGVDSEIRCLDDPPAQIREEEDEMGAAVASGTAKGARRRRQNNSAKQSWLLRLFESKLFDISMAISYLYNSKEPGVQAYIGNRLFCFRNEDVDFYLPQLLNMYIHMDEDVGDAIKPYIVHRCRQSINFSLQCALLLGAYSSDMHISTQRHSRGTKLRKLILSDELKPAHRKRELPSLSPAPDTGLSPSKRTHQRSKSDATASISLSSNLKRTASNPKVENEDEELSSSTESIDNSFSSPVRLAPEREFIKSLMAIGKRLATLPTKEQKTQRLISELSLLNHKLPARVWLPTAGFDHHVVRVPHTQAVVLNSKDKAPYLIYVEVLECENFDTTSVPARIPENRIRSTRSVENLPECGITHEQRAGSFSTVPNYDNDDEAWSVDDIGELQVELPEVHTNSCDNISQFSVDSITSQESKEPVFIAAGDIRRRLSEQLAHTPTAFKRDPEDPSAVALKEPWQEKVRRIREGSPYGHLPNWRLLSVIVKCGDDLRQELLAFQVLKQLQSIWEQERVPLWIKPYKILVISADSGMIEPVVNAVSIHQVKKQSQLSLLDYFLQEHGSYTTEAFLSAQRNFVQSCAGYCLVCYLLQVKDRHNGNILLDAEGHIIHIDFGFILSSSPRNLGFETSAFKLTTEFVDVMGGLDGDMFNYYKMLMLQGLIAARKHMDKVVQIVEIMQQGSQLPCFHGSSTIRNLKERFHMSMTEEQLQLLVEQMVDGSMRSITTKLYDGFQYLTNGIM

## Nc1ncc(-c2ccc(C(=O)O)cc2)nc1-c1ccc(C(F)(F)F)cc1 [Compound (1), 4-(5-amino-6-(4-(trifluoromethyl)phenyl)pyrazin-2-yl)benzoic acid]
P. falciparum NF54
  IC50: 33 nM
hPI4KB
  IC50: 7700 nM
[1]
  Apparent T1/2: 4.9 h
  Plasma Cl: 10.1 mL/min/kg
  Vd: 4.3 L/kg
[1]; […] po vs 5.0 mg/kg iv
  Oral Bioavailability: 94%
[2]; [3]
  solubility kinetic at 2 h: 178 µM (≈ 64 µg/mL)
[2]; [4]
  solubility kinetic at 2 h: 180 µM (≈ 64.7 µg/mL)
P. falciparum K1
  IC50: 32 nM

## Nc1ncc(-c2ccc(C(=O)O)cc2)nc1-c1ccc(C(F)(F)F)nc1 [Compound (2), 4-(5-amino-6-(6-(trifluoromethyl)pyridin-3-yl)pyrazin-2-yl)benzoic acid]
P. falciparum NF54
  IC50: 26 nM
hPI4KB
  IC50: 23000 nM
[1]
  Apparent T1/2: 4.4 h
  Plasma Cl: 16.7 mL/min/kg
  Vd: 6.4 L/kg
[1]; [5]
  Oral Bioavailability: 38%
[2]; [3]
  solubility kinetic at 2 h: 199 µM (≈ 71.7 µg/mL)
[2]; [4]
  solubility kinetic at 2 h: 187 µM (≈ 67.4 µg/mL)
P. falciparum K1
  IC50: 24 nM

## NC(=O)c1ccc(-c2cnc(N)c(-c3ccc(C(F)(F)F)cc3)n2)cc1 [Reference 1, reference compound]
P. falciparum NF54
  IC50: 13 nM
hPI4KB
  IC50: 5000 nM
[1]
  Apparent T1/2: 1.0 h
  Plasma Cl: 39 mL/min/kg
  Vd: 3.5 L/kg
[1]; [5]
  Oral Bioavailability: 25%
[2]; [3]
  solubility kinetic at 2 h: 115 µM (≈ 41.2 µg/mL)
[2]; [4]
  solubility kinetic at 2 h: < 5 µM
P. falciparum K1
  IC50: 14 nM
